Source: ChEMBL document CHEMBL1152027, “The prooligonucleotide approach. I: Esterase-mediated reversibility of dithymidine S-alkyl-phosphorothiolates to dithymidine phosphorothioates” (Bioorg Med Chem Lett, 1995)

Assays:
[1] = Half-life in the CEM cell extracts; format: ADME, CCRF-CEM; conditions: human
[2] = Half-life in the culture medium (RPMI 1640+10% fetal calf serum FCS); format: ADME, cell-free, Bos taurus; conditions: cattle

Row | SMILES | half-life [1] [h] | half-life [2] [h]
1 | Cc1cn(-c2cc(O)c(COP(=O)(Oc3cc(-n4cc(C)c(=O)[nH]c4=O)oc3CO)SCOC(=O)C(C)(C)C)o2)c(=O)[nH]c1=O (stereo unspecified) | 0.667 | 6
2 | CC(=O)SCSP(=O)(OCc1oc(-n2cc(C)c(=O)[nH]c2=O)cc1O)Oc1cc(-n2cc(C)c(=O)[nH]c2=O)oc1CO (stereo unspecified) | < 0.0833 | 1
3 | CC(=O)SCCSP(=O)(OCc1oc(-n2cc(C)c(=O)[nH]c2=O)cc1O)Oc1cc(-n2cc(C)c(=O)[nH]c2=O)oc1CO (stereo unspecified) | < 0.0833 | 7
